Structures can show the parent of a compound that is named as a salt. Where two headings read alike, the source gives them in different places. Marks after values point to notes of the source that are not given here.
How the values were obtained:
[1] = tested on: NDM-1 expressing E. coli strain; assay: microbe, parasite or virus in culture; format: cell-based; settings: NDM-1 expressing E. coli towards the antibiotic
[2] = tested on: A. baumannii (ATCC 17978); assay: MIC, sensitization fold and FIC index on A. baumannii; format: cell-based; settings: A. baumannii towards the antibiotic
K. pneumoniae (43816) = assay: MIC, sensitization fold and FIC index on K. pneumoniae; format: cell-based; settings: for MIC of AB with 5 μg/ml MD-124: K. pneumoniae; for Sensitization fold with 5 μg/ml MD-124: K. pneumoniae towards the antibiotic
E. coli (ATCC 25922) = assay: MIC determination, sensitization fold and FIC index on E. coli; format: cell-based; settings: for MIC of AB with MD-124: MD-124 concentration 5 μg/ml; for MIC: Escherichia coli, ATCC25922, 24 h
How it was run: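 MICs read by OD600 as >90% growth inhibition after two-fold rifampicin dilutions, 5×10^5 CFU/ml E. coli, 24 h, 37 °C, shaken, cation-adjusted Mueller Hinton II broth.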

[3] = IC50 of Table 7 (cell line not stated); format: cell-based
NIH3T3 cells = assay: Cytotoxicity on mammalian cells (CCK-8), NIH3T3; format: cell-based; settings: 3T3 cell line; 24 h
Description: (§1) Cytotoxicity test of bacterial sensitizers on mammalian cells. Cell viability was assessed by using Cell Counting Kit-8 (CCK-8, Dojindo, Japan). HEK293 or NIH3T3 cells were seeded in a 96-well plate one day before the experiment to reach 80% confluency. Cells were then incubated with various concentration of bacterial sensitizers at 37° C. with 5% CO2 for 24 h, then 10 μL of CCK-8 solution was added to each well, and the plate was incubated for an additional at 37° C. 2 h with 5% CO2. The optical density at 450 nm was recorded by plate reader; and the results were calculated as a percentage of viability compared with the untreated control.

M. smegmatis = assay: MIC on mycobacteria; format: cell-based, Mycobacterium smegmatis; settings: Mycolicibacterium smegmatis, read-out: MIC on mycobacteria
[4] = Cytotoxicity in H9c2 cells (CCK-8); format: cell-based; settings: rat, H9c2 cells; H9c2 cell line
How it was run: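 H9c2 cells were grown in DMEM with 10% FBS, seeded the day before, and exposed to a range of di-amidine concentrations for 24 h at 37 °C, 5% CO2. Viability was read by CCK-8 after 3 h at 37 °C as absorbance at 450 nm.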

HEK293 cells = assay: Cytotoxicity on mammalian cells (CCK-8), HEK293; format: cell-based; settings: for CC50: HEK293 cell line, 24 h; for IC50: Homo sapiens, HEK293
Description: as §1

[5] = Cytotoxicity on mammalian cells (CCK-8), NIH3T3; format: cell-based; settings: mouse, NIH3T3 cells, 3T3 cell line
Description: as §1

MRSA (ATCC 33592) = assay: MIC determination and sensitization fold on MRSA; format: cell-based, methicillin-resistant Staphylococcus aureus; settings: MRSA, rifampicin
Description: Bacteria strains: E. coli (ATCC 25922), A. baumannii (ATCC 17978), K. pneumoniae (43816), S. maltophilia (ATCC 31559), S. typhimurium (ATCC 14028), C. werkmanii (ATCC 51114), S. aureus (ATCC 12600) and methicillin-resistant Staphylococcus aureus (MRSA, ATCC 33592) strains were purchased from ATCC. NR698 was provided.
Bacteria culture and MICs determination: Gram-negative bacteria were cultured in Mueller Hinton II cation-adjusted broth. Gram-positive bacteria were cultured in LB broth. Mycobacterium smegmatis was cultured in Middlebrook 7H9 Broth. MICs of antibiotics itself were determined by performing two-fold serial dilutions of antibiotics. MICs of antibiotics in the presence of bacterial sensitizers were determined by performing two-fold serial dilutions of antibiotics with or without a constant concentration of bacterial sensitizers. The MICs tests were performed on 96-well plates with a final volume of 200 μl Mueller Hinton II cation-adjusted broth in each well. Each well was inoculated with 5×10^5 CFU/ml bacteria and was incubated for 24 h at 37° C. with continuous shaking of 200 rpm. The bacterial density was then determined by OD600. Bacterial growth %=OD600 of antibiotic treatment group/OD600 of antibiotic non-treatment group. MICs was determined as the concentrations that inhibit more than 90% of bacteria growth.
Sensitization fold determination and FIC index calculations: Sensitization fold=MIC of antibiotic only/MIC of antibiotic with bacterial sensitizer. […] Since the MICs were determined by performing two-fold serial dilutions of antibiotic, so the sensitization fold can is the times of 2.
Bacteria strains (as indicated in Table 5B) were cultured with rifampicin at various concentrations in the presence or absence of 10 μM of the indicated compound for 20 h at 37° C. The MIC, sensitization, cytotoxicity, and MIC on mycobacteria were tested according to methods described herein. […] The sensitization activities of compounds on MRSA were tested using rifampicin. The sensitization activities of compounds on E. coli were tested using rifampicin.

B. subtilis = assay: MIC determination and sensitization fold on B. subtilis; format: cell-based; settings: B. subtilis; for Sensitization fold: erythromycin
[6] = Cytotoxicity on mammalian cells (CCK-8), HEK293; format: cell-based; settings: human, HEK293 cells; HEK293 cell line; 24 h
Description: as §1

[7] = E. coli towards the antibiotic, MD-124 5 μg/ml
[8] = E. coli (wild type), antibiotic alone, read-out: MIC of AB only
[9] = E. coli, rifampicin, 10 μg/ml bacterial sensitizer
[10] = E. coli, rifampicin, compound at 25 μM
[11] = 10 μM compound, rifampicin as the antibiotic (Table 6)
[12] = E. coli, rifampicin, compound at 10 μM

## O=C(N[C@H](CO)[C@H](O)c1ccc([N+](=O)[O-])cc1)C(Cl)Cl [Chloramphenicol]
[1]
  Sensitization fold with 5 μg/ml MD-124: 8 fold
[2]
  Sensitization fold with 5 μg/ml MD-124: 4 fold
K. pneumoniae (43816)
  MIC of AB with 5 μg/ml MD-124: 1.6 µg/mL
  Sensitization fold with 5 μg/ml MD-124: >64 fold
E. coli (ATCC 25922); [7]
  Sensitization fold: 8 fold
E. coli (ATCC 25922); E. coli
  MIC of AB with MD-124: 1.6 µg/mL
E. coli (ATCC 25922); read-out: MIC of AB only
  MIC: 12.5 µg/mL

## CCC[C@@H]1C[C@@H](C(=O)N[C@@H]([C@H]2O[C@H](SC)[C@H](O)[C@@H](O)[C@H]2O)[C@H](C)Cl)N(C)C1 [Clindamycin, reference compound]
K. pneumoniae (43816)
  MIC of AB with 5 μg/ml MD-124: 25 µg/mL
E. coli (ATCC 25922); E. coli
  MIC of AB with MD-124: 3.2 µg/mL
E. coli (ATCC 25922); [8]
  MIC: 200 µg/mL

## N=C(N)Nc1ccc(-c2ccc(-c3nc4ccc(NC(=N)N)cc4[nH]3)o2)cc1 [DB704]
[3]
  IC50: 100 µM
E. coli (ATCC 25922); [9]
  Sensitization fold: 16^a fold

## N=C(N)N/N=C/c1ccc(-c2ccc(-c3ccc(/C=N/NC(=N)N)cc3)s2)cc1 [DB1079]
[3]
  IC50: 12 µM
E. coli (ATCC 25922); E. coli, rifampicin, 5 μg/ml bacterial sensitizer
  Sensitization fold: 64^b fold

## N=C(N)c1ccc(-c2ccc(-c3ccc(C(=N)N)cc3)[se]2)cc1 [DB1213]
[3]
  IC50: 50 µM
E. coli (ATCC 25922); [9]
  Sensitization fold: 32^a fold

## N=C(N)c1ccc(OCc2cccc(COc3ccc(C(=N)N)cc3F)c2F)c(F)c1 [DB2558, 1,3-Bis {(4-amidino-2-fluoro)-phenoxymethyl}-2-fluorobenzene dihydrochloride]
NIH3T3 cells
  CC50: 100 µM
M. smegmatis; M. smegmatis
  MIC: 6 to 12 µM
[4]
  CC50 at 24 h: 50 µM
E. coli (ATCC 25922); E. coli, rifampicin, compound at 12 μM
  Sensitization fold: 4-fold at 12 μM.
E. coli (ATCC 25922); [10]
  Sensitization fold: 8-fold at 25 μM;
E. coli (ATCC 25922); E. coli, compound alone, read-out: MIC
  MIC: 50 µM
HEK293 cells
  CC50: 100 µM

## CC(=O)O[C@H]1C[C@@]2(C)[C@@H](C[C@@H](O)[C@H]3[C@@]4(C)CC[C@@H](O)[C@@H](C)[C@@H]4CC[C@@]32C)/C1=C(\CCC=C(C)C)C(=O)O [Fusidic acid, reference compound]
[2]
  Sensitization fold with 5 μg/ml MD-124: 128 fold
K. pneumoniae (43816)
  MIC of AB with 5 μg/ml MD-124: 25 µg/mL
  Sensitization fold with 5 μg/ml MD-124: 4 fold
E. coli (ATCC 25922); [7]
  Sensitization fold: 32 fold
E. coli (ATCC 25922); E. coli
  MIC of AB with MD-124: 6.25 µg/mL
E. coli (ATCC 25922); [8]
  MIC: > 200 µg/mL

## Cc1cc(COc2ccc(C(=N)NC(C)C)cc2)cc(COc2ccc(C(=N)NC(C)C)cc2)c1 [MD-102, 4,4′-(((5-methyl-1,3-phenylene)bis(methylene))bis(oxy))bis(N-isopropylbenzimidamide) dihydrochloride]
[5]
  CC50 at 24 h: > 100 µM
M. smegmatis
  MIC: 3 µM
[4]
  CC50 at 24 h: > 100 µM
MRSA (ATCC 33592); compound at 4 μM
  Sensitization fold: 32-fold at 4 μM
B. subtilis; compound at 2 μM
  Sensitization fold: 4-fold at 2 μM
E. coli (ATCC 25922); [11]
  Sensitization fold: 1 fold
E. coli (ATCC 25922); E. coli, rifampicin, compound up to 25 μM
  Sensitization: No effect up to 25 μM.
E. coli (ATCC 25922)
  MIC: 50 µM
E. coli (ATCC 25922); rifampicin, compound at up to 10 μM
  sensitization activity: no sensitization activity
[6]
  CC50 at 24 h: > 100 µM

## COc1cc(C(=N)N)ccc1OCc1cc(C)cc(COc2ccc(C(=N)N)cc2OC)c1 [MD-103, 4,4′-(((5-methyl-1,3-phenylene)bis(methylene))bis(oxy))bis(3-methoxybenzimidamide) dihydrochloride]
NIH3T3 cells
  CC50: 100 µM
M. smegmatis
  MIC: 12.5 µM
[4]
  CC50 at 24 h: > 100 µM
MRSA (ATCC 33592); compound at 6 μM
  Sensitization fold: 2 to 4-fold at 6 μM
MRSA (ATCC 33592); compound at 12 μM
  Sensitization fold: 8 to 16-fold at 12 μM,
E. coli (ATCC 25922); [11]
  Sensitization fold: 2 fold
E. coli (ATCC 25922); [12]
  Sensitization fold: 2-fold at 10 μM
E. coli (ATCC 25922); [10]
  Sensitization fold: 4-fold at 25 μM
E. coli (ATCC 25922)
  MIC: 50 µM
HEK293 cells
  CC50: 100 µM
  IC50: 100 µM

## Cc1cc(OCc2ccc(C(=N)N)cc2)cc(OCc2ccc(C(=N)N)cc2)c1 [MD-109, 4,4′-(((5-methyl-1,3-phenylene)bis(oxy))bis(methylene))dibenzimidamide dihydrochloride]
NIH3T3 cells
  CC50: 100 µM
B. subtilis; compound at 12 μM
  Sensitization fold: 32-fold at 12 μM
B. subtilis; Bacillus subtilis, 24 h, compound alone, read-out: MIC
  MIC: 50 µM
E. coli (ATCC 25922); [11]
  Sensitization fold: 8 fold
E. coli (ATCC 25922); [12]
  Sensitization fold: 8-fold at 10 μM
E. coli (ATCC 25922); [10]
  Sensitization fold: 32-fold at 25 μM
E. coli (ATCC 25922)
  MIC: 100 µM
HEK293 cells
  CC50: 100 µM
  IC50: 100 µM

## Cc1cc(COc2ccc(C(=N)N)cc2F)cc(COc2ccc(C(=N)N)cc2F)c1 [MD-120, 4,4′-(((5-methyl-1,3-phenylene)bis(methylene))bis(oxy))bis(3-fluorobenzimidamide) dihydrochloride]
NIH3T3 cells
  CC50: 100 µM
MRSA (ATCC 33592); compound at 6 μM
  Sensitization fold: 4-fold at 6 μM
E. coli (ATCC 25922); [11]
  Sensitization fold: 32 fold
E. coli (ATCC 25922); [12]
  Sensitization fold: 32-fold at 10 μM
E. coli (ATCC 25922); [10]
  Sensitization fold: 64-fold at 25 μM
E. coli (ATCC 25922)
  MIC: 100 µM
HEK293 cells
  CC50: 100 µM
  IC50: 100 µM

## COc1cc(OCc2ccc(C(=N)N)cc2)cc(OCc2ccc(C(=N)N)cc2)c1 [MD-126, 4,4′-(((5-methoxy-1,3-phenylene)bis(oxy))bis(methylene))dibenzimidamide dihydrochloride]
NIH3T3 cells
  CC50: 100 µM
E. coli (ATCC 25922); [11]
  Sensitization fold: 2 fold
E. coli (ATCC 25922); [12]
  Sensitization fold: 2-fold at 10 μM
E. coli (ATCC 25922)
  MIC: > 50 µM
HEK293 cells
  CC50: 100 µM
  IC50: 100 µM

— US20230105108A1, “COMPOUNDS FOR THE TREATMENT OF BACTERIAL INFECTIONS AND POTENTIATION OF ANTIBIOTICS” (GEORGIA STATE UNIVERSITY RESEARCH FOUNDATION, INC., priority 2019, published 2023)
